Results taken from paper PMC4081081 (2014).

Tested on: T25 (DNA, single strand, C6-amino dT at 8 of strand 2) TGGCGACGGCAGCGAGGCTTTTTTTTTTTTTTTTTTTTTTTTT/GCCTCGCTGCCGTCGCCA
Assay: Cy3 fluorescence quenching
Details: 100 mM KCl; 10 mM Tris-HCl pH 7.5, room temperature, 50 nM DNA; negative control, nonspecific quenching taken as background

binding: weak
SMILES: CCc1c(C)c2cc3nc(cc4nc(cc5c(CC)c(C)c(cc1[nH]2)n5C)C(C)=C4CCC(=O)O)C(CCC(=O)O)=C3C
